Several values for one entry are separate records, joined by “and”; a condition that tells them apart may be missing. Identical values can stand only once.

The IC50 is the concentration that gives 50% inhibition.

Sequence of Nonstructural protein 3 (A0A024AXB9 whole entry): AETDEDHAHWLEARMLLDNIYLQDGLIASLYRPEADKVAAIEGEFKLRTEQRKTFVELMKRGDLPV

This assay addresses Nonstructural protein 3 (Zika virus, UniProt A0A024AXB9). Put plainly: Functional biochemical assay to identify treatments for viral infectious disease that targets Zika NS2B-NS3 protease. Utilizing a direct enzyme activity measurement method, reading the fluorescence intensity is used to characterize the relative potency of inhibitors as IC50. Details: species or system PRVABC59.
Turning to `CN1CCC([C@H]2CCCN(C(=O)Nc3ccc4c(c3)CNC4)C2)CC1`, the IC50 was over 25000 nM.
`Cc1cc(C(=O)Nc2ccc3c(c2)CNC3)c2cnn(C)c2n1`: the half-inhibitory concentration (IC50) worked out at 5560 nM.
`Cc1cc(NC(=O)c2cc(Cl)cc3[nH]ncc23)ccc1N1CCNCC1` registered an IC50 of 6480 nM.
In the case of `O=C(NC[C@H]1CCCO1)[C@H](Nc1ccc2c(c1)CNC2)c1cc(Cl)cc2[nH]ncc12` it was 111 nM.
`Cc1ccc(C)n1-c1ccc(Cl)cc1C(=O)Nc1ccc2c(c1)CNC2` gave an IC50 of over 25000 nM.
Next, `Cc1cc(C(=O)Nc2ccc3c(c2)CNC3)c2cn[nH]c2c1`: 77 nM and 66 nM; `N#C[C@H](Nc1ccc2c(c1)CNC2)c1cccc2[nH]ncc12`: 2610 nM.
In the case of `N#Cc1cc(Cl)cc(C(=O)Nc2ccc3c(c2)CNC3)c1` it was 276 nM; in that of `Cn1cc2cc(Cl)cc(C(=O)Nc3ccc4c(c3)CNC4)c2n1`, 214 nM.
In the case of `O=C(Nc1ccc2c(c1)CNC2)c1cc(Cl)cc2nccnc12` it was 3340 nM.
Consider `O=C(Nc1ccc2c(c1)CNC2)N1CCC2(C1)CC(F)(F)C2`, for which the half-maximal inhibitory concentration (IC50) was determined as 15700 nM.
Next, `CC(C)(C)c1ccc(Cl)cc1C(=O)Nc1ccc2c(c1)CNC2`: 2460 nM; `O=C(Nc1ccc2c(c1)CNC2)c1nc2ccccc2s1`: over 25000 nM.
Molecule `Cc1cc(C(F)(F)F)cc(C(=O)Nc2ccc3c(c2)CNC3)n1` had a half-maximal inhibitory concentration (IC50) of over 25000 nM.
`Cc1n[nH]c2nc(Cl)cc(C(=O)Nc3ccc4c(c3)CNC4)c12` had a 50% inhibitory concentration (IC50) of 3710 nM. This counts as single-digit micromolar.
In the case of `CCc1ncc(Cl)cc1C(=O)Nc1ccc2c(c1)CNC2` it was 1600 nM; in that of `O=C(Cc1cccc2[nH]ncc12)Nc1ccc2c(c1)CNC2`, over 25000 nM; in that of `O=C(Nc1ccc2c(c1)CNC2)c1cc(Br)cc2[nH]c([C@H]3CCOC3)nc12`, 265 nM.
Next, `O=C(Nc1ccc2c(c1)CNC2)c1c(Br)cc(Cl)c2[nH]ncc12`: 9140 nM; `O=C(Nc1ccc2c(c1)CNC2)c1c(Br)ccc2[nH]ncc12`: over 25000 nM.
Turning to `N#C[C@]1(Nc2ccc3c(c2)CNC3)C(=O)Nc2ccc(Cl)cc21`, the IC50 was 1540 nM.
Next, `N#C[C@H](Nc1ccc2c(c1)CNC2)c1cc(Cl)cc(C2CC2)c1`: 174 nM; `O=C(Nc1ccc2c(c1)CNC2)c1nccc2[nH]ncc12`: 6080 nM; `CC(C)(C)OC(=O)N1Cc2ccc(NC(=O)c3cc(Cl)cc4[nH]ncc34)cc2C1`: over 25000 nM.
Next, `O=C(Nc1ccc2c(c1)CNC2)c1cc(F)cc2[nH]nnc12`: 81 nM and 132 nM.
In the case of `N#Cc1cc(Cl)cc([C@H](C#N)Nc2ccc3c(c2)CNC3)c1` it was 433 nM.
With `Cc1cnc([C@H]2CCCN(C(=O)Nc3ccc4c(c3)CNC4)C2)s1`, the IC50 was over 25000 nM.
`CC(C)c1ccc(Cl)cc1C(=O)Nc1ccc2c(c1)CNC2` showed a concentration for half-maximal inhibition (IC50) of 2340 nM.
In the case of `CCCN1C(=O)[C@](Nc2ccc3c(c2)CNC3)(C(N)=O)c2cc(Cl)ccc21` it was 21000 nM; in that of `Cc1c(C(=O)Nc2cc(CCCN)ccn2)cnn1C1CC1`, over 25000 nM.
Next, `O=C(Nc1ccc2c(c1)CNC2)c1cc(Cl)ccc1OC1CCCC1`: 5030 nM; `NS(=O)(=O)c1cc(Cl)cc(C(=O)Nc2ccc3c(c2)CNC3)c1`: 1080 nM; `O=C(Nc1ccc2c(c1)OCCNC2)c1cc(Cl)cc2[nH]ncc12`: 1660 nM.
Next, `CNC(=O)[C@]1(Nc2ccc3c(c2)CNC3)CCc2ccccc21`: over 25000 nM.
For `Cn1cc(CNC(=O)[C@H](Nc2ccc3c(c2)CNC3)c2cc(Cl)cc(C3CC3)c2)cn1`, the IC50 was 85 nM and 65 nM.
Next, `O=C(Nc1ccc2c(c1)CNC2)c1cc2ccccc2[nH]1`: 24400 nM; `CCc1cc(Cl)cc(C(=O)Nc2ccc3c(c2)CNC3)c1`: 457 nM.
Regarding `Cn1cnc2nc(Cl)cc(C(=O)Nc3ccc4c(c3)CNC4)c21`, it took 16200 nM to reach half-maximal inhibition (IC50).
With `O=C(Nc1cnc2c(c1)CNCC2)c1cc(Cl)cc2[nH]ncc12`, inhibition was half-maximal at 366 nM (IC50). This IC50 lies about 44-fold lower than the previous one.
In the case of `C[C@H](NC(=O)c1cc(Cl)cc2[nH]ncc12)c1ccc2c(c1)CNC2` it was 1280 nM; in that of `O=C(Nc1ccc2c(c1)CNC2)c1cc(F)cc2[nH]ncc12`, 40 nM and 49 nM.
On to `NCCCc1ccnc(NC(=O)c2cc(C3CC3)no2)c1`, for which the IC50 was over 25000 nM.
In the case of `O=C(Nc1ccc2c(c1)CNC2)c1cc(Cl)ccc1OCC(F)(F)F` it was 2760 nM; in that of `O=C(Nc1ccc2c(c1)CNC2)c1cc(Cl)nc2[nH]ncc12`, 1540 nM.
The molecule `Cn1ncc2c(C(=O)Nc3ccc4c(c3)CNC4)cc(-c3cccnc3)nc21` registered a half-maximal inhibitory concentration (IC50) of over 25000 nM.
In the case of `Cc1c(C(=O)Nc2cc(CN(C)C)ccn2)cc(C2CC2)n1C` it was over 25000 nM.
With `O=C(Nc1ccc2c(c1)CNCCO2)c1cc(Cl)cc2[nH]ncc12`, it took 835 nM to reach half-maximal inhibition (IC50). This lies in the sub-micromolar range.
In the case of `O=C(NC[C@H]1CCCO1)[C@H](Nc1ccc2c(c1)CNC2)c1cc(Cl)cc(C2CC2)c1` it was 71 nM and 53 nM; in that of `N#C[C@H](Nc1ccc2c(c1)CNC2)c1n[nH]c2cc(C(F)(F)F)ccc12`, 10300 nM.
In the case of `COC(=O)CNC(=O)[C@H](Nc1ccc2c(c1)CNC2)c1cc(Cl)cc(C2CC2)c1` it was 97 nM and 73 nM; in that of `CCn1ncc2c(C(=O)Nc3ccc4c(c3)CNC4)cc(C)nc21`, 4410 nM; in that of `NCCCc1ccnc(NC(=O)c2cnn3c2CCC3)c1`, over 25000 nM.
Next, `Cc1ccc2[nH]ncc2c1C(=O)Nc1ccc2c(c1)CNC2`: over 25000 nM.
Turning to `CCS(=O)(=O)c1ccc(Cl)cc1C(=O)Nc1ccc2c(c1)CNC2`, half-maximal inhibition (IC50) required 2520 nM.
Regarding `O=C(NCC1CCOCC1)[C@H](Nc1ccc2c(c1)CNC2)c1cc(Cl)cc2[nH]ncc12`, 209 nM corresponded to half-maximal inhibition (IC50).
For `O=C(Nc1ccc2c(c1)CNC2)c1ccc2scnc2c1`, the concentration for half-maximal inhibition (IC50) was 15000 nM and > 25000 nM.
Next, `NCc1cc(NC(=O)c2cc(Cl)cc(NC(=O)OCc3ccccc3)c2)cc(-c2ccc(OCC(=O)O)nc2)c1`: over 25000 nM; `O=C(Nc1ccc2c[nH]nc2c1)c1cc(Cl)cc2[nH]ncc12`: over 25000 nM; `Cc1c(C(=O)Nc2cc([C@H]3CCOC3)ccn2)cc(C2CC2)n1C`: 177 nM and 82 nM and 137 nM.
Next, `O=C(Nc1ccc2c(c1)CNC2)c1ccc(F)c2[nH]ncc12`: 2650 nM; `O=C(NCc1ccc(F)cc1)[C@H](Nc1ccc2c(c1)CNC2)c1cc(Cl)cc2[nH]ncc12`: 78 nM and 65 nM.
Next, `O=C(Nc1cccc2c1CNC2)c1cc(Cl)cc2[nH]ncc12`: over 25000 nM; `COCCN(C)Cc1ccnc(NC(=O)c2cc(C3CC3)n(C)c2C)c1`: over 25000 nM.
As to `Cc1c(C(=O)Nc2ccc3c(c2)CNC3)cc(C2CC2)n1C`, it took 15800 nM to reach half-maximal inhibition (IC50).
The molecule `Cc1c(C(=O)Nc2cc(CCCN)ccn2)cc(C#N)n1C` gave an IC50 of over 25000 nM.
Molecule `O=C(Nc1ccc2c(c1)CNC2)N1CC(F)(F)CC2(CCC2)C1` yielded an IC50 of over 25000 nM.
Take `CCn1c(C)cc(C(=O)Nc2cc(CCCN)ccn2)c1C`: the half-inhibitory concentration (IC50) is over 25000 nM.
In the case of `NCCCc1ccnc(NC(=O)c2nnc(C3CC3)s2)c1` it was over 25000 nM; in that of `Cc1ccc(C(=O)Nc2ccc3c(c2)CNC3)c2[nH]ncc12`, 3390 nM.
Next, `N#C[C@H](Nc1ccc2c(c1)CNC2)c1cccc2c1CCNC2=O`: 22400 nM.
Next, `Cc1c(C(=O)Nc2ncc3c(c2C#N)CCOC3)cc(C2CC2)n1C`: over 25000 nM; `O=C(Nc1ccc2c(c1)CNC2)c1cc(Cl)ccc1-n1ccnc1`: 3540 nM.

The record behind these values is ChEMBL document CHEMBL5604062, “ASAP - ZIKV NS2B-NS3 protease fluorescence dose response” (2024).
